Counter-ions that a name gives are not always drawn.
Key:
Porcine DPP-IV = molecular target: T1, Porcine DPP-IV (Sus scrofa, UniProt P22411); test: Assay of DPP-IV enzyme inhibitory activity (spectrophotometric, Gly-Pro-pNA cleavage); format: biochemical; conditions: Porcine DPP-IV, Gly-Pro-pNA substrate, 30° C.; mean ± SD of three experiments except compound Nos. 133 & 139; read-out: IC50 (μM) Mean ± SD, inhibitory activity on DPP-IV enzyme activity
T1 construct: purchased Sigma-Aldrich Germany
T1 sequence (P22411 whole entry): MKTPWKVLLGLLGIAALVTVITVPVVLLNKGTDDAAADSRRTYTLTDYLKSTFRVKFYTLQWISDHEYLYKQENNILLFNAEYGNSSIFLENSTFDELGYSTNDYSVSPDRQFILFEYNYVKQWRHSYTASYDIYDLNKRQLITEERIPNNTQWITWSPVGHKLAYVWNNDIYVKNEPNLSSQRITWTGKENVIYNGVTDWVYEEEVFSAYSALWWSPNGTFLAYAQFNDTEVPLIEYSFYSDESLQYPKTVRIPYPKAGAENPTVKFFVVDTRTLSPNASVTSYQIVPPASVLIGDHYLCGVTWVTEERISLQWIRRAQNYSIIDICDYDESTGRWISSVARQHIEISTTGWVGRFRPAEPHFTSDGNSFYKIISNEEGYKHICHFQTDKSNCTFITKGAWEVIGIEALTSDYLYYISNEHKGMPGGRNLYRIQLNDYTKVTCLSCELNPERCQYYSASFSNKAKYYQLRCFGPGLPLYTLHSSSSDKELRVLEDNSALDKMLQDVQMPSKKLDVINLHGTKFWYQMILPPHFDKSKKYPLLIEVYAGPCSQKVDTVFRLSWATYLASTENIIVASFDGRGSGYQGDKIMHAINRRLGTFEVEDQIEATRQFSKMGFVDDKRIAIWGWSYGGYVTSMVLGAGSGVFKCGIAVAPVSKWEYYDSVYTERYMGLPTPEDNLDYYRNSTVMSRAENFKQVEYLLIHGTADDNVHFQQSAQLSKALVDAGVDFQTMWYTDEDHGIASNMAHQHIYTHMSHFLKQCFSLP

[1] = In-vitro free radical scavenging activity using DPPH free radical; conditions: 30° C., 30 minutes, 515 nm
From the text: Free Radical Scavenging Activity:
To determine the in-vitro free radical scavenging activity of compounds of general formula-I on 2,2,-diphenyl-1-picrylhydrazyl (DPPH)radical (Ref: W. Brand-Williams, M. E. Cuvelier, C. Berset “Use of a free radical method to evaluate antioxidant activity”, Lebensm.- Wiss.u.Technol.,1995,28,Nr.1:25-30).
To evaluate the free radical scavenging activity of compounds they are allowed to react with stable radical DPPH*. In its radical form, DPPH* absorbed at the characteristic wave length of 515 nm, but upon reduction by an antioxidant or radical scavenger (AH), the absorption disappears.
10^−4M solution of DPPH* was prepared in methanol.
Various concentrations (10 mM, 1 mM, 0.5 mM, 0.25 mM and 0.125 mM) of drug solutions were prepared in methanol.
900 μl of DPPH radical solution was added to an eppendorf tube. To it was added 100 μl of methanol.
900 μl of DPPH radical solution was added to an eppendorf tube. To it was added 100 μl of various concentrations of drug solutions in methanol.
The absorbance of control and test samples was recorded after incubation at 30° C. for 30 minutes, at 515 nm taking methanol as blank.
The percent antioxidant activity was calculated according to the formula:
% Antioxidant activity=100−[O.D of test sample/O.D of control*100]

## N#CC1CSCN1C(=O)CN(N)C1CCCC1.O=C(O)C(F)(F)F (centres unmarked) [Compound No. 19, 3-[1-Oxo-2-((1-Cyclopentyl)-hydrazino)]ethyl-4-cyano thiazolidine trifluoroacetate]
Porcine DPP-IV
  IC50: 1.46 ± 0.16 µM
[1]; Concentration 100 μM
  % Activity (antioxidant, DPPH): 94.55%

## N#CC1CSCN1C(=O)CN(N)C1CCCCC1.O=C(O)C(F)(F)F (centres unmarked) [Compound No. 21, 3-[1-Oxo-2-((1-Cyclohexyl)-hydrazino)]ethyl-4-cyano thiazolidine trifluoroacetate]
Porcine DPP-IV
  IC50: 2.01 ± 0.16 µM
[1]; Concentration 100 μM
  % Activity (antioxidant, DPPH): 95.71%

## CC1CCC(N(N)CC(=O)N2CSCC2C#N)CC1.O=C(O)C(F)(F)F (centres unmarked) [Compound No. 25, 3-[1-Oxo-2-((1-(4-methyl)cyclohexyl)hydrazino)]ethyl-4-cyano thiazolidine trifluoroacetate]
Porcine DPP-IV
  IC50: 0.67 ± 0.03 µM
[1]; Concentration 100 μM, 100 µM
  % Activity (antioxidant, DPPH): 95.66%

## CC1CCC(N(N)CC(=O)N2CSCC2C#N)CC1.O=C(O)C(F)(F)F (centres unmarked) [Compound No. 29, 3-[1-Oxo-2-((1-(4-methyl)cyclohexyl)-hydrazino)]ethyl-4-cyano thiazolidine trifluoroacetate]
Porcine DPP-IV
  IC50: 0.8 ± 0.15 µM
[1]; Concentration 100 μM, 100 µM
  % Activity (antioxidant, DPPH): 93.70%

## N#CC1CSCN1C(=O)CN(N)C1CCN(C(=O)N2CCOCC2)CC1.O=C(O)C(F)(F)F (centres unmarked) [Compound No. 85, 3-[1-oxo-2-[1-(1(morpholinocarbonyl)-piperidin-4-yl)]hydrazino]ethyl-4-cyano-thiazolidine trifluoroacetate]
Porcine DPP-IV
  IC50: 0.79 ± 0.072 µM
[1]; Concentration 12.5 μM
  % Activity (antioxidant, DPPH): 15.25%
[1]; Concentration 25 μM
  % Activity (antioxidant, DPPH): 30.67%
[1]; Concentration 50 μM
  % Activity (antioxidant, DPPH): 49.97%
[1]; Concentration 100 μM
  % Activity (antioxidant, DPPH): 67.23%

## CS(=O)(=O)N1CCC(N(N)CC(=O)N2CSCC2C#N)CC1.O=C(O)C(F)(F)F (centres unmarked) [Compound No. 86, 3-[1-oxo-2-[1-(1-(methylsulphonyl)-piperidin-4-yl)]hydrazino]ethyl-4-cyanothiazolidine trifluoroacetate]
Porcine DPP-IV
  IC50: 1.46 ± 0.22 µM
[1]; Concentration 12.5 μM
  % Activity (antioxidant, DPPH): 22.72%
[1]; Concentration 25 μM
  % Activity (antioxidant, DPPH): 45.27%
[1]; Concentration 50 μM
  % Activity (antioxidant, DPPH): 70.18%
[1]; Concentration 100 μM
  % Activity (antioxidant, DPPH): 88.14%

## N#CC1CSCN1C(=O)CN(N)C1CCC(NC(=O)c2ccc(F)cc2)CC1.O=C(O)C(F)(F)F (centres unmarked) [Compound No. 100]
[1]; Concentration 12.5 μM
  % Activity (antioxidant, DPPH): 31.14%
[1]; Concentration 25 μM
  % Activity (antioxidant, DPPH): 41.49%
[1]; Concentration 50 μM
  % Activity (antioxidant, DPPH): 59.54%
[1]; Concentration 100 μM
  % Activity (antioxidant, DPPH): 77.75%

## N#CC1CSCN1C(=O)CN(N)C1CCN(CC(=O)Nc2ccc3c(c2)OCCO3)CC1 (centres unmarked) [Compound No. 104, 3-[1-oxo-2-[1-(1-(2-oxo-2(2,3dihydrobenzo(1,4)dioxan-6-yl)aminoethyl)piperidin-4-yl)]hydrazino]ethyl-4-cyano-thiazolidine bis-trifluoroacetate]
[1]; Concentration 12.5 μM
  % Activity (antioxidant, DPPH): 19.40%
[1]; Concentration 25 μM
  % Activity (antioxidant, DPPH): 36.23%
[1]; Concentration 50 μM
  % Activity (antioxidant, DPPH): 42.20%
[1]; Concentration 100 μM
  % Activity (antioxidant, DPPH): 50.14%

## N#CC1CSCN1C(=O)CN(N)C1CCN(CC(=O)Nc2ccc(Cl)cc2)CC1 (centres unmarked) [Compound No. 105, 3-[1-oxo-2-[1-(1-(2-oxo-2(4-chlorophenyl)aminoethyl)piperidin-4-yl)]hydrazino]ethyl-4-cyanothiazolidine bis-trifluoroacetate]
[1]; Concentration 12.5 μM
  % Activity (antioxidant, DPPH): 24.03%
[1]; Concentration 25 μM
  % Activity (antioxidant, DPPH): 35.27%
[1]; Concentration 50 μM
  % Activity (antioxidant, DPPH): 49.25%
[1]; Concentration 100 μM
  % Activity (antioxidant, DPPH): 49.63%

## N#CC1CSCN1C(=O)CN(N)C1CCN(CC(=O)Nc2ccc(Cl)cn2)CC1 (centres unmarked) [Compound No. 115, 3-[-1-oxo-2-[1-(1-(−2-oxo-2-(5-chloropyridin-2-yl)aminoethyl)piperidine-4-yl)]hydrazino]ethyl-4-cyanothiazolidine trihydrochloride]
[1]; Concentration 12.5 μM, trihydrochloride, 12.5 µM
  % Activity (antioxidant, DPPH): 19.46%
[1]; Concentration 25 μM, trihydrochloride, 25 µM
  % Activity (antioxidant, DPPH): 26.94%
[1]; Concentration 50 μM, trihydrochloride, 50 µM
  % Activity (antioxidant, DPPH): 46.24%
[1]; Concentration 100 μM, trihydrochloride, 100 µM
  % Activity (antioxidant, DPPH): 75.84%

## N#CC1CSCN1C(=O)CN(N)C1CCN(CC(=O)Nc2cccnc2Cl)CC1 (centres unmarked) [compound 121]
[1]; Concentration 100 μM
  % Activity (antioxidant, DPPH): 57.13%

Source: patent US20040106802A1, “Novel compounds and therapeutic uses thereof” (TORRENT PHARMACEUTICALS LTD., priority 2002, published 2004)
